pKi: −log10 of the molar value.
Biological target: T1, hM2 muscarinic receptor subtype (Homo sapiens, UniProt P08172)
T1 construct: expressed in transfected cells; membranes prepared
T1 sequence (P08172 1-466): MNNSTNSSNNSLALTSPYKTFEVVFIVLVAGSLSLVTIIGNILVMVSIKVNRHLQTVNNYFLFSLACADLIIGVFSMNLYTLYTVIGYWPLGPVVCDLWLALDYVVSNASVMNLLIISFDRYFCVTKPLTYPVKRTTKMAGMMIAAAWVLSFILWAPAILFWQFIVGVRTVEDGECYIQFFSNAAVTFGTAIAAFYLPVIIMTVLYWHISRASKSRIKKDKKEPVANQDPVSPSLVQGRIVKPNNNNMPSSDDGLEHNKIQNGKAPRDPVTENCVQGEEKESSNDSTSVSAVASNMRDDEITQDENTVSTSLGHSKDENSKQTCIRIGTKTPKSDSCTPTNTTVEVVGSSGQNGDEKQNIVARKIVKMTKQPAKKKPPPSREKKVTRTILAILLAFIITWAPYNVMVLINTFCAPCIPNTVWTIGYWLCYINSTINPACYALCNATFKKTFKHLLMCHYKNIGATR
Test: Radioligand binding assay ([3H]NMS displacement), hM2
Conditions: [3H]NMS at 1 nM, CHO cell membranes, 60 minutes at 37° C.
Protocol: CHO (Chinese hamster ovary) cell lines stabilely expressing cloned human hM1, hM2, hM3 and hM4 muscarinic receptor subtypes, respectively, were grown to near confluency in medium consisting of HAM's F-12 supplemented with 10% FBS (Fetal Bovine Serum) and 250 μg/mL Geneticin. The cells were grown in a 5% CO2, 37° C. incubator and lifted with dPBS+2 mM EDTA. Cells were collected by 5 minute centrifugation at 650×g, and cell pellets were either stored frozen at −80° C. or membranes were prepared immediately. For membrane preparation, cell pellets were resuspended in lysis buffer and homogenized with a Polytron PT-2100 tissue disrupter (Kinematica AG; 20 seconds×2 bursts). Crude membranes were centrifuged at 40,000×g for 15 minutes at 4° C. […] Protein concentration of the membrane suspension was determined by the method of Lowry, O. et al., (1951) Journal of Biochemistry: 193, 265. […]
Radioligand binding assays were performed in 96-well microtiter plates in a total assay volume of 100 μL. […] Filter plates were rinsed three times with wash buffer (10 mM HEPES) to remove unbound radioactivity. […] The plates were then counted in a PerkinElmer Topcount liquid scintillation counter (PerkinElmer Inc., Wellesley, Mass.). Binding data were analyzed by nonlinear regression analysis with the GraphPad Prism Software package (GraphPad Software, Inc., San Diego, Calif.) using the one-site competition model. […]

Compound: COc1ccncc1CN1CCC(N(CCCCCCCN2CC[C@@H](C(C(N)=O)(c3ccccc3)c3ccccc3)C2)C(C)C)CC1 [Example 6]
- pKi: > 9.00
